Data as given in patent US20230399661A1, “SHUTTLE AGENT PEPTIDES OF MINIMAL LENGTH AND VARIANTS THEREOF ADAPTED FOR TRANSDUCTION OF CAS9-RNP AND OTHER NUCLEOPROTEIN CARGOS” (priority 2020, published 2023).

Columns and labels:
HeLa cells = experiment: GFP-NLS transduction in the presence or absence of Cas9-RNP complex, flow cytometry; format: cell-based, Human; design: GFP transduction efficiency: concentration or dose not given beside the values; details: for resistance/sensitivity of GFP transduction to inhibition by Cas9-RNP: presence vs absence of Cas9-RNP
Protocol: HeLa cells were plated (20 000 cells/well) in a 96 well-plate the day prior to the experiment in DMEM containing 10% FBS. A mix was prepared containing a synthetic peptide shuttle agent (10-30 μM), the GFP-NLS (10 μM) with or without a Cas9-NLS recombinant protein (2.5 μM) complexed with a crRNA/tracrRNA (2 μM) targeting the beta-2 microglobulin (B2M) gene and completed to 50 μL with PBS. Cells were washed once with PBS and the shuttle/GFP-NLS/Cas9-RNP mix was added to the cells and incubated for one minute. Then 100 μL DMEM containing 10% FBS was added to the mix. Cells were then immediately washed once with PBS and incubated in DMEM containing 10% FBS for two hours. Cells were the analyzed by flow cytometry.
To better understand the inhibitory effect of Cas9-RNP on shuttle agent transduction activity, HeLa cells were incubated with different peptides/shuttle agents and GFP cargo, in the presence or absence of Cas9-RNP, and delivery of GFP was assessed by flow cytometry, as described in Example 1. […] For some shuttle agents, the effect was particularly striking. For example, the GFP transduction efficiency for FSD268 decreased from 92% to 29%, the GFP transduction efficiency for FSD250 decreased from 83% to 13%, the GFP transduction efficiency for FSD10 decreased from 76% to 22%, and the GFP transduction efficiency for FSD395 decreased from 91% to 17%. […] Structure-activity relationships were explored further by repeating the above transduction experiments with shuttle agent variants sharing the same “core” amphipathic cationic alpha helical region as FSD10-15 (FIG. 4A), CM18 (FIG. 4B), and FSD356 (FIG. 4C).

CFF-16HBEge cells = experiment: Cas9-RNP delivery, B2M genome editing; format: cell-based, Human; details: B2M knockout, versus non-treated negative control
Protocol: HeLa cells were plated (10 000 cells/well) in a 96 well-plate the day prior to the experiment in DMEM containing 10% FBS. CFF-16HBEge cells were plated (10 000 cells/well) in a 96 well-plate the day prior to the experiment in Alpha-MEM containing 10% FBS.
For Cas9-RNP or ABE-Cas9-RNP transduction, a mix of Cas9-NLS or ABE-Cas9 recombinant protein (2.5 μM) complexed with a crRNA/tracrRNA (2 μM) targeting the beta-2 microglobulin (B2M) gene were co-incubated with 10-20 μM of synthetic peptide shuttle agent in a final volume of 50 μL completed with PBS. Cells were washed once with PBS and the shuttle/Cas9-RNP complex was added to the cells for and incubated for 60 to 90 seconds. Then 100 μL of DMEM (HeLa) or Alpha-MEM (CFF-16HBEge) containing 10% FBS was added to the mix. Cells were then immediately washed once with PBS and incubated in DMEM (HeLa) or Alpha-MEM (CFF-16HBEge) containing 10% FBS.
Genome editing events resulting in the absence of B2M protein (knockout) at the cell surface were determined by flow cytometry 6 days post-transduction. Cells were washed once with PBS and incubated with the anti-B2 microglobulin antibody (PE conjugated) (0.5 μL of anti-B2M-PE in […] 0.5% BSA/PBS) for 45 minutes at room temperature. Cells were washed twice with PBS and detached with 50 µL of Trypsin-EDTA for 10 minutes at 37° C. then inactivated by adding 100 μL of media containing 10% FBS. The percentage of knockout cells (cells without B2M antibody signal) was determined by flow cytometry.
A similar genome editing experiment as in Example 6 was performed in the Human Bronchial Epithelial cell line model of cystic fibrosis, CFF-16HBEge.
Further transduction experiments in CFF-16HBEge cells were performed to compare the ability of shuttle agents to deliver functional Cas9-RNP genome editing versus ABE-Cas9-RNP base editing complexes. Variants of the shuttle agent FSD10 (FIG. 8A) were tested in parallel, and genome editing/base editing results as evaluated by next-generation sequencing (NGS) are shown in FIGS. 8B and 8C for Cas9-RNP and ABE-Cas9-RNP, respectively.

| Substance | resistance/sensitivity of GFP transduction to inhibition by Cas9-RNP (HeLa cells) | other results |
| --- | --- | --- |
| FSD241: shuttle agent: FSD10-15 core, C-terminal glycine/serine-rich linker fused to a second cationic domain (KWKLARAFARAIKKLGGSGGGSYARAAARQARA; FSD241) | more sensitive to inhibition by Cas9-RNP | – |
| FSD422: FSD10-15 with flanking histidine residues in place of the glycine/serine-rich residues (HHHHHHKWKLARAFARAIKKLHHHHHH; FSD422) | did not maintain the same level of Cas9-RNP resistance | – |
| FSD397: synthetic peptide shuttle agent (KLKLAKALAKALKKLGGSGGGSQAKAQAKQAK; FSD397) | – | genome editing with Cas9-RNP as cargo (CFF-16HBEge cells): failed to show any increase in genome editing |
| FSD268: synthetic peptide shuttle agent (KWKLLKLWSRLLKLWGGSGGGSQARAQARQAR; FSD268) | – | GFP transduction efficiency (HeLa cells; absence of Cas9-RNP): 92%; GFP transduction efficiency (HeLa cells; presence of Cas9-RNP): 29% |
| FSD296: shuttle agent with N-terminal segment identical to FSD356; polar residues (e.g., Q) between the C-terminal positively-charged residues (KWKLLKLWSRLLKLWQQGGSGGGSQARAQARQAR; FSD296) | increased shuttle agent sensitivity to inhibition by Cas9-RNP | – |
| FSD210: shuttle agent: FSD10-15 core, C-terminal glycine/serine-rich linker fused to a second cationic domain (KWKLARAFARAIKKLGGSGGGSRRLKAKRAKA; FSD210) | more sensitive to inhibition by Cas9-RNP | – |
| FSD189: shuttle agent variant sharing the same core region as FSD174; higher C-terminal positive charge density (LLKIWSRLIKIWTQGRRLGRAQRAQRA; FSD189) | generally more sensitive to Cas9-RNP inhibition | – |
| FSD446: shuttle agent with N-terminal segment identical to FSD356 and a C-terminal non-cationic hydrophilic segment (KWKLLKLWSRLLKLWGGSGGGSHTSDQTN; FSD446) | – | GFP transduction efficiency (HeLa cells; presence of Cas9-RNP): 34% |
| His-CM18-TAT: CM18-based shuttle agent having high C-terminal positive charge density (HHHHHHKWKLFKKIGAVLKVLTTGYGRKKRRQRRR; His-CM18-TAT) | particularly marked sensitivities to inhibition by Cas9-RNP | – |
| FSD174: synthetic peptide shuttle agent having higher C-terminal positive charge density (LLKIWSRLIKIWTQGRRLGGSGGGSARAARQAR; FSD174) | particularly sensitive to the inhibitory effect of Cas9-RNP | GFP transduction efficiency (HeLa cells; absence of Cas9-RNP): 66%; GFP transduction efficiency (HeLa cells; presence of Cas9-RNP): 11%; resistance/sensitivity of GFP transduction to inhibition by Cas9-RNP (HeLa cells; listed as FSD 174): generally more sensitive to Cas9-RNP inhibition |
| FSD187: shuttle agent variant sharing the same core region as FSD174; higher C-terminal positive charge density (LLKIWSRLIKIWTQGRRLGARKPRKSRQ; FSD187) | generally more sensitive to Cas9-RNP inhibition | – |
| FSD10-15: 15-amino acid fragment of several longer shuttle agents, including FSD375, FSD10 and FSD210 (KWKLARAFARAIKKL; FSD10-15) | more resistant | GFP transduction efficiency (HeLa cells; absence of Cas9-RNP): 21%; GFP transduction efficiency (HeLa cells; presence of Cas9-RNP): 24% |
| FSD322: synthetic peptide shuttle agent (KWKLAKAWSRALKLWGGSGGGSARAQARQA; FSD322) | – | genome editing with Cas9-RNP as cargo (CFF-16HBEge cells): failed to show any increase in genome editing |
| FSD251: shuttle agent containing three negatively-charged glutamate (E) residues in the peptide's C-terminal region (KWKLLKLWSRLLKLWGGSGGGSAEAAEQAE; FSD251) | least sensitivity to Cas9-RNP inhibition | – |
| FSD440: CM18 with flanking glycine/serine-rich residues (GGSGGGSKWKLFKKIGAVLKVLTTGGGSGGGS; FSD440) | retained the peptide's resistance to Cas9-RNP | GFP delivery score (HeLa cells; FIGS. 3 and 4B, presence or absence of Cas9-RNP not stated): 3.6 |
| FSD357: FSD356 with the last three C-terminal residues (QAG) replaced with three positively-charged arginine residues (RRR) (KWKLLKLWSRLLKLWGGSGGGSRRR; FSD357) | – | GFP transduction efficiency (HeLa cells; presence of Cas9-RNP): 4% |
| His-CM18-9Arg: CM18-based shuttle agent having high C-terminal positive charge density (HHHHHHKWKLFKKIGAVLKVLTTGRRRRRRRRR; His-CM18-9Arg) | particularly marked sensitivities to inhibition by Cas9-RNP | – |
| FSD424: FSD10-15 with flanking glycine/serine-rich residues (KWKLARAFARAIKKLGGSGGGSGGSGGGS; FSD424) | retained the peptide's resistance to Cas9-RNP | GFP transduction activity relative to FSD10-15 (HeLa cells; FIG. 4A): improving GFP transduction activity over FSD10-15 |
| CM18-TAT: CM18-based shuttle agent having high C-terminal positive charge density (KWKLFKKIGAVLKVLTTGYGRKKRRQRRR; CM18-TAT) | particularly marked sensitivities to inhibition by Cas9-RNP | – |
| FSD432: shuttle agent: FSD10-15 core, C-terminal glycine/serine-rich linker fused to a second cationic domain (KWKLARAFARAIKKLGGSGGGSQAKAQAKQAK; FSD432) | more sensitive to inhibition by Cas9-RNP | – |
| FSD246: shuttle agent with N-terminal segment identical to FSD356; increased C-terminal positive charge density (KWKLLKLWSRLLKLWGGSGGGSYARAAARKAKRA; FSD246) | increased shuttle agent sensitivity to inhibition by Cas9-RNP | – |
| FSD356: shuttle agent whose last three C-terminal residues are QAG (KWKLLKLWSRLLKLWGGSGGGSQAG; FSD356) | more resistant | GFP transduction efficiency (HeLa cells; presence of Cas9-RNP): 51% |
| His-CM18-Transportan: CM18-based shuttle agent with lower C-terminal positive charge density (HHHHHHKWKLFKKIGAVLKVLTTGGWTLNSAGYLLKINLKALAALAKKIL; His-CM18-Transportan) | substantially more resistant to inhibition by Cas9-RNP | – |
| CM18-L2-PTD4: CM18-based shuttle agent with lower C-terminal positive charge density (KWKLFKKIGAVLKVLTTGGGSGGGSYARAAARQARA; CM18-L2-PTD4) | substantially more resistant to inhibition by Cas9-RNP | – |
